Reference: patent US5679828A (priority 1995, dated 1997)
Like-named read-outs stand apart in the source and are kept apart here.

Columns and labels:
[1] = biological target: T1, HIV-1 reverse transcriptase (Human immunodeficiency virus type 1 group M subtype B, UniProt P04585); test: HIV-1 reverse transcriptase assay; assay type: biochemical, HIV-1 IIIB
T1 construct: virion associated HIV-1 IIIB reverse transcriptase; endogenous in cells; host or cells: HIV-1 IIIB virions lysed in Triton X-100
Protocol: Ten microliters of virion associated HIV-1 IIIB reverse transcriptase in 1% Triton X-100 was mixed with 50 microliters of a reaction cocktail containing 50 mM Tri-HCl (pH 7.8), 75 mM KCl, 2 mM dithiothreitol, 5 mM MgCl2, 5 mg/ml poly (A) [Pharmacia], 0.25 unit/ml oligo(dT)[Pharmacia]; 0.05% Nonidet P40 and 10 mCi/ml ^32 P-dTTP in the presence of various concentrations of test compound. After incubating for one hour at 37° C., 40 microliters of the reaction mixture was applied to a Schleicher & Schuell NA 45 membrane saturated with […] (0.3M NaCl, 30 mM sodium citrate, pH 7.0) in a Schleicher & Schuell Minifold over one sheet of GB003 filter paper. Each well of the minifold was washed four times with 2×SSC. Autoradiography was performed, and radioactivity was quantified with a Packard Matrix (Meriden, Conn.) 9600 direct beta counter.

[2] = system: HIV-1; test: HIV-1 replication in PHA-stimulated PBMCs (p24 antigen ELISA); assay type: cell-based, HIV-1 (IIIB isolate); set-up: TI50: unit not given beside the values; conditions: for EC50: Human immunodeficiency virus 1, PBMC; for T.I. values in PBMCs compared with H9 cells: PBMCs versus H9 cells; for TI50: Table 2, PBMCs
Protocol: The T cell line, H9, and the promonocytic cell line, U937, were maintained separately in continuous culture with complete medium (RPMI 1640 with 10% fetal calf serum) at 5% CO2 and 37° C. The cell lines were used in experiments only when in the logarithmic phase of growth, whereas uninfected peripheral blood mononuclear cells (PBMCs) were first stimulated with PHA (1 μg/mL) for three days. All cell targets were incubated with HIV-1 (IIIB isolate, TCID50 10^4 IU/ml, at a multiplicity of infection of 0.01-0.01 IU/cell) for one hour at 37° C. and 5% CO2. The cell lines and PBMCs were washed thoroughly to remove unadsorbed virions and resuspended at 4×10^5 cells/ml in complete medium or complete medium with 10% v/v interleukin 2 (IL-2), respectively. One ml. aliquots were placed into wells of 24-well culture plates containing an equal volume of test compounds (diluted in the appropriate culture medium). The toxicity of each compound was assessed by determining the number of compound-exposed uninfected cells that remained after four days at 37° C. and 5% CO2. A p24 antigen ELISA assay was used to determine the level of virus released in the medium of the HIV-infected cultures. The p24 antigen assay used a HIV-1 anti-p24 specific monoclonal antibody as the capture antibody coated onto 96-well plates. Following a sample incubation period, rabbit serum containing antibodies for HIV-1 p24 was used to tag any p24 "captured: onto the microtiter well surface. Peroxidase conjugated goat anti-rabbit serum was then used to tag HIV-1 p24 specific rabbit antibodies that had complexed with captured p24. […] The cutoff for the p24 ELISA assay was 12.5 pg/ml. P24 in the culture medium was quantitated against a standard curve containing known amounts of p24. The effective (EC50) and inhibitory (IC50) concentrations for anti-HIV activity and cytotoxicity, respectively, were determined.

[3] = system: HIV induced membrane fusion; test: cells; assay type: cell-based, HIV-1LAI; conditions: for IC100: Human immunodeficiency virus 1, CEM-4, 24 h, read-out: Fusion Assay IC100
Protocol: (§1) MOLT-4 cells (7×10^4) were incubated with HIV-1LAI chronically infected CEM cells (10^4) in 96-well half-area flat-bottomed plates (Costar) in 100 microliters culture medium were incubated with the cell mixtures at 37° C. for 24 hours. Multinucleated syncytia were enumerated by microscopic examination of the entire contents of each well.

[4] = system: cells of the fusion assay; test: Cytotoxicity noted in the fusion assay; assay type: cell-based; conditions: Table 1 footnotes; one-day fusion assay
Protocol: as §1, with “Cell fusions were performed as described in Matthews et al., Proc. Natl. Acad. Sci. USA, 1987, 84, 5424-5428. MOLT-4” for “MOLT-4”
^d No noticeable cytotoxicity at 100 μg/mL
^e Toxic to the cells at 80 μg/mL in oneday fusion assay
^f Toxic at 40 μg/mL under the assay conditions

[5] = system: HIV-1; test: HIV-1 replication in acutely infected H9 lymphocytes (p24 antigen ELISA); assay type: cell-based, HIV-1 (IIIB isolate); set-up: TI50: unit not given beside the values
Protocol: The cell lines were used in experiments only when in the logarithmic phase of growth, whereas uninfected peripheral blood mononuclear cells (PBMCs) were first stimulated with PHA (1 μg/mL) for three days. […] The cell lines and PBMCs were washed thoroughly to remove unadsorbed virions and resuspended at 4×10^5 cells/ml in complete medium or complete medium with 10% v/v interleukin 2 (IL-2), respectively. One ml. aliquots were placed into wells of 24-well culture plates containing an equal volume of test compounds (diluted in the appropriate culture medium). The toxicity of each compound was assessed by determining the number of compound-exposed uninfected cells that remained after four days at 37° C. and 5% CO2. A p24 antigen ELISA assay was used to determine the level of virus released in the medium of the HIV-infected cultures. The p24 antigen assay used a HIV-1 anti-p24 specific monoclonal antibody as the capture antibody coated onto 96-well plates. […] P24 in the culture medium was quantitated against a standard curve containing known amounts of p24. The effective (EC50) and inhibitory (IC50) concentrations for anti-HIV activity and cytotoxicity, respectively, were determined.
^a Concentration which inhibits viral replication in H9 cells by 50%

[6] = system: HIV-1; conditions: cited from earlier work
[7] = Table 1, inhibit 50% of HIV-1 RT activity, read-out: HIV-RT Assay IC50
[8] = PHA-stimulated PBMCs, read-out: EC50
[9] = Human immunodeficiency virus 1, H9, Table 1, inhibits viral replication in H9 cells by 50%, read-out: EC50
[10] = Table 1, H9 cells, therapeutic index
[11] = Human immunodeficiency virus 1, Lymphocyte, acutely infected H9 lymphocytes
[12] = acutely infected H9 lymphocytes
[13] = Human immunodeficiency virus 1, Lymphocyte, Table 2, H9
[14] = earlier data, H9 lymphocyte cells
[15] = earlier data, HIV-1 replication in H9 lymphocyte cells

Q: With CC(C)[C@@H]1CC[C@]2(C(=O)O)CC[C@]3(C)[C@H](CC[C@@H]4[C@@]5(C)CC[C@H](OC(=O)CC(C)(C)CC(=O)O)C(C)(C)[C@@H]5CC[C@]43C)[C@@H]12 [Compound 9, 3-O-(3',3'-dimethylglutaryl)-dihydrobetulinic acid] as the molecule, how does the IC50 [1, 7] read?
A: > 166000 nM

Q: What about the EC50 [2] of the same molecule?
A: 17.5 ng/mL

Q: What about the EC50 [2, 8] of the same molecule?
A: 29.2 nM

Q: What about the “T.I. values in PBMCs compared with H9 cells” value [2] of the same molecule?
A: lower than those in H9 cells

Q: And the TI50 [2]?
A: 229

Q: What about the IC100 [3] of the same molecule?
A: 20 µg/mL

Q: And the “cytotoxicity in fusion assay (footnotes d, e, f)” value (“cytotoxicity in fusion assay” below) [4]?
A: f (Toxic at 40 μg/mL under the assay conditions)

Q: What about the EC50 [5, 9] of the same molecule?
A: 5.7 nM

Q: And the T.I. [5, 10]?
A: 1,017.0

Q: Which IC50 [1, 7] does the source give for CC(C)[C@@H]1CC[C@]2(C(=O)O)CC[C@]3(C)[C@H](CC[C@@H]4[C@@]5(C)CC[C@H](OC(=O)CC(C)(C)C(=O)O)C(C)(C)[C@@H]5CC[C@]43C)[C@@H]12 [Compound 8, 3-O-(3',3'-dimethylsuccinyl)-dihydrobetulinic acid] here?
A: > 170000 nM

Q: What about the EC50 [2] of the same molecule?
A: 1.75 ng/mL

Q: And the EC50 [2, 8]?
A: 2.99 nM

Q: And the “T.I. values in PBMCs compared with H9 cells” value [2]?
A: lower than those in H9 cells

Q: What about the TI50 [2] of the same molecule?
A: 2,286

Q: And the IC100 [3]?
A: 20 µg/mL

Q: And the “cytotoxicity in fusion assay” value [4]?
A: f (Toxic at 40 μg/mL under the assay conditions)

Q: What about the EC50 [5, 11] of the same molecule?
A: < 0.017 nM

Q: And the T.I. [5, 10]?
A: 14,000-98,000

Q: And the T.I. [5, 12]?
A: more than 400,000

Q: With C=C(C)[C@@H]1CC[C@]2(C(=O)O)CC[C@]3(C)[C@H](CC[C@@H]4[C@@]5(C)CC[C@H](OC(=O)CC(C)(C)C(=O)O)C(C)(C)[C@@H]5CC[C@]43C)[C@@H]12 [Compound 3, 3-O-(3',3'-dimethylsuccinyl)-betulinic acid] as the molecule, how does the “cytotoxicity in fusion assay” value [4] read?
A: d (No noticeable cytotoxicity at 100 μg/mL)

Q: And the EC50 ([5]; Human immunodeficiency virus 1, Lymphocyte)?
A: < 0.017 nM

Q: Which IC50 [1, 7] does the source give for C=C(C)[C@@H]1CC[C@]2(C(=O)O)CC[C@]3(C)[C@H](CC[C@@H]4[C@@]5(C)CC[C@H](OC(=O)CC(C)(C)CC(=O)O)C(C)(C)[C@@H]5CC[C@]43C)[C@@H]12 [Compound 4, 3-O-(3',3'-dimethylglutaryl)-betulinic acid] here?
A: > 167000 nM

Q: And the IC100 [3]?
A: 30 µg/mL

Q: And the “cytotoxicity in fusion assay” value [4]?
A: d (No noticeable cytotoxicity at 100 μg/mL)

Q: For C=C(C)[C@@H]1CC[C@]2(C(=O)O)CC[C@]3(C)[C@H](CC[C@@H]4[C@@]5(C)CC[C@H](OC(=O)C(C)(C)CC(=O)O)C(C)(C)[C@@H]5CC[C@]43C)[C@@H]12 [Compound 2, 3-O-(2',2'-dimethylsuccinyl)betulinic acid], which IC50 [1, 7] is on record?
A: > 171000 nM

Q: And the IC100 [3]?
A: 20 µg/mL

Q: What about the “inhibition of syncytia formation, compounds 2 and 3 compared” value ([3]; compound 3 versus compound 2) of the same molecule?
A: inhibited syncytia formation at the same concentration

Q: And the “cytotoxicity in fusion assay” value [4]?
A: d (No noticeable cytotoxicity at 100 μg/mL)

Q: And the EC50 [5, 9]?
A: 2700 nM

Q: What about the EC50 [5, 11] of the same molecule?
A: 2700 nM

Q: And the T.I. [5, 10]?
A: 5.9

Q: And the T.I. [5, 12]?
A: 5.9

Q: Which results are given for C=C(C)[C@@H]1CC[C@]2(C(=O)O)CC[C@]3(C)[C@H](CC[C@@H]4[C@@]5(C)CC[C@H](OC(=O)COCC(=O)O)C(C)(C)[C@@H]5CC[C@]43C)[C@@H]12 [Compound 5, 3-O-diglycolyl-betulinic acid]?
A: IC50 [1, 7]: > 175000 nM; IC100 [3]: 40 µg/mL; cytotoxicity in fusion assay (footnotes d, e, f) [4]: e (Toxic to the cells at 80 μg/mL in oneday fusion assay); EC50 [5, 9]: 10 nM; EC50 [5, 13]: 10 ng/mL; T.I. [5, 10]: 1,172.0; TI50 ([5]; Table 2, H9): 1,500

Q: Which T.I. [6, 14] does the source give for CC(=O)[C@@H]1CC[C@]2(C(=O)O)CC[C@]3(C)[C@H](CC[C@@H]4[C@@]5(C)CC[C@H](O)C(C)(C)[C@@H]5CC[C@]43C)[C@@H]12 [platanic acid] here?
A: 14

Q: What about the EC50 [6, 15] of the same molecule?
A: 6500 nM

Q: Which results are given for CC(C)[C@@H]1CC[C@]2(C(=O)O)CC[C@]3(C)[C@H](CC[C@@H]4[C@@]5(C)CC[C@H](O)C(C)(C)[C@@H]5CC[C@]43C)[C@@H]12 [Compound 6, dihydrobetulinic acid, reference compound]?
A: T.I. [6, 14]: 14; EC50 ([6]; earlier data, anti-HIV activity, unit inferred): 900 nM; IC50 [1]: > 218000 nM; IC100 [3]: > 100 µg/mL; EC50 [5, 9]: 900 nM; T.I. [5, 10]: 14.0

Q: With CC1(C)Oc2ccc3ccc(=O)oc3c2[C@@H](OC(=O)[C@@]23CC[C@@](C)(C(=O)O2)C3(C)C)[C@H]1OC(=O)[C@@]12CC[C@@](C)(C(=O)O1)C2(C)C [DCK, 3',4'-di-O-(-)-camphanoyl-(+)-cis-khellactone] as the molecule, how does the “therapeutic index (T.I.)” value ([6]; H9 lymphocyte cells, background) read?
A: 136,719

Q: What about the EC50 ([6]; HIV replication in H9 lymphocyte cells, background) of the same molecule?
A: 0.4 nM

Q: Which results are given for CC(C)[C@@H]1CC[C@]2(C(=O)O)CC[C@]3(C)[C@H](CC[C@@H]4[C@@]5(C)CC[C@H](OC(=O)C(C)(C)CC(=O)O)C(C)(C)[C@@H]5CC[C@]43C)[C@@H]12 [Compound 7, 3-O-(2',2'-dimethylsuccinyl)-dihydrobetulinic acid]?
A: EC50 [5, 9]: 560 nM; EC50 [5, 11]: 560 nM; T.I. [5, 10]: 13.8; T.I. [5, 12]: 13.8

Q: What does the source list for C=C(C)[C@@H]1CC[C@]2(C(=O)O)CC[C@]3(C)[C@H](CC[C@@H]4[C@@]5(C)CC[C@H](O)C(C)(C)[C@@H]5CC[C@]43C)[C@@H]12 [Compound 1, betulinic acid, reference compound]?
A: EC50 [6, 15]: 1400 nM; IC50 [1, 7]: > 219000 nM; IC100 [3]: > 100 µg/mL; EC50 [5, 9]: 1400 nM

Q: Which IC50 [1, 7] does the source give for CC(C)[C@@H]1CC[C@]2(C(=O)O)CC[C@]3(C)[C@H](CC[C@@H]4[C@@]5(C)CC[C@H](OC(=O)COCC(=O)O)C(C)(C)[C@@H]5CC[C@]43C)[C@@H]12 [Compound 10, 3-O-diglycolyl-dihydrobetulinic acid] here?
A: > 174000 nM

Q: And the IC100 [3]?
A: 40 µg/mL

Q: And the “cytotoxicity in fusion assay” value [4]?
A: e (Toxic to the cells at 80 μg/mL in oneday fusion assay)

Q: And the EC50 [5, 9]?
A: 5.6 nM

Q: What about the EC50 [5, 13] of the same molecule?
A: 3.2 ng/mL

Q: And the T.I. [5, 10]?
A: 2,344.0

Q: And the TI50 ([5]; Table 2, H9)?
A: 2,344
